From patent US10213451B2, “Methods and compounds for modulating the secretion or expression of adhesion proteins or angiopoietins of cells” (PACIFIC ARROW LIMITED, priority 2004, dated 2019)

Key:
OVCA 432 = experiment: MTT assay OVCA 432; type: cell-based; conditions: Homo sapiens, OVCA432; OVCA 432, Serous
Description: Majority of ovarian cancers arise from the surface epithelium of ovary, most of them belong to the histological subtypes of clear cell and serous carcinoma. We obtained 10 more human ovarian carcinoma cell-lines of these histological subtypes for these studies. The inhibition activity exerted by Xanifolia-Y was determined with MTT assay.

60 cancer cell lines = experiment: Test with 60 cancer cell lines; type: cell-based; conditions: most of 60 cancer cell lines tested
Description: To investigate the anti-tumor activity of Xanthoceras sorbifolia, we employed cancer cell lines derived from different human organs and tested the effect on growth activity. […] Intl App'l No. PCT/US04/33359 and U.S. Ser. No. 10/906,303. The active compound was then purified and named Xanifolia-Y. Its chemical structure was determined by 2D NMR and MS analysis. Xanifolia-Y is a novel triterpenoid saponin with a diangeloyl group attached at one end and carbohydrates or sugar moieties at another end of the triterpene structure. In an embodiment, the diangeloyl attached at C21, C22 positions and carbohydrates or sugar moieties at C3 position of a triterpene structure. The diangeloyl group is important for its activity. The purified compound has been tested with 60 cancer cell lines.

[1] = test system: Hey8A cells inoculated into peritoneal cavity; experiment: Nodule formation in peritoneal cavity, Hey8A; type: in vivo, nu/nu mice; conditions: 0.25 mg/kg i.p. daily 5 days per week for two-three weeks
From the text: The relationship between the nodule formation and timelines during tumor progression are established. Usually, 4 to 6 nodules are formed during the entire period of tumor progression in this system (Lander Jr., et al., 2005). We start the drug-treatment at times equivalent to 20% and 50% of full tumor progression. At these times, the number of nodule is less and the size (weight) of the nodules is smaller. At the end of the drug-treatment, animals are euthanized and number of tumor nodules is determined and the tumor size (mass) is weighted.
Animals: 40 nu/nu mice are used per experiment.
2 groups of mice (20 each) (i) Drug-treatment start at time equivalent to 20% of full tumor progression (or on 4 days after tumor inoculation) (ii) Drug-treatment starts at time equivalent to 50% of full tumor progression (or on 10 days after tumor inoculation). On the day of starting drug-treatment, half of the animals (10) will be scarified and the number and weight of nodules will measured.
Drug-Treatments: Animals are administered daily for 5 days per week for two—three weeks. Dose: 0.25 mg/kg, through i.p. route.

[2] = test system: swelling of rats' feet induced by Carrageenin; experiment: Carrageenin-induced swollen feet model; type: in vivo, SD rats;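 note: percent increase in foot volume over pre-inflammation volume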
Description: SD rats, male, weighing 163±18 g were used in the experiment. The tested animals are allowed to acclimate for a week. The rats drink water freely. The rats were randomly divided into 5 groups: control, positive control and 3 test groups, and each group had 8 rats. The dose for 3 groups of rats are 10, 20 and 40 mg/kg. Indometacin for the positive control is 10 mg/kg and fed once after modeling. The dose of CMC-Na for the control group is the same as each test group and fed into the stomach once a day before modeling for 5 days. The tested drug was fed into the stomach 10 minutes before the animal modeling (1 mL/100 g). The volumes of right foot of each rat were measured 0.5, 1, 2 and 4 hours before and after modeling. The volumes of the right hind feet were measured at a different time, 10 minutes after inflammation induced by subcutaneous injection (with syringe needle 7) of 0.05 mL of the 1% of Carrageenin/normal saline mixture into the feet. The Rate of swelling of the feet was calculated, compared with the controls and subject to a student t-test. Rate of swelling (E) (%)=Ltn−Lt0/Lt0×100% • Ltn: volume of foot after the inflammation • Lt0: volume of foot before the inflammation

[3] = test system: Fibronectin cellular content in ES2 cells; experiment: Cellular contents of Fibronectin and beta-actin (Western blot); type: cell-based, human; conditions: 24 hours
Description: Cells: ES2 (human ovarian carcinoma cells) were grew in RPMI 1640 medium. 1.5 million cells were seeded in a T25 flask and grown for 24 hours before drug-treatment. Drug-treatment: Cells cultures were replaced with fresh RPMI medium containing either 2.5 ul of DMSO (as control) [D]; or 10 ug/ml (final concentration) of Xanifolia-Y3 [Y]. After 24 hours, aliquot of culture medium was taken out for Fibronectin determination (Western blot method). The attached cells were suspended in 1 ml of SDS sample buffer (cell-extract).
Western Blot: Spent culture medium (0.6 ml) was mixed with SDS sample buffer (0.2 ml), and the cell-extract was boiled for 3 minutes before loading to SDS gel. Samples (80 ul/lane) were applied to a 6%-10% SDS gel and electrophoresis was conducted with 100 volts for 2 hours. Protein was transferred to a nitrocellulose membrane electrophoretically (30 min at 100 volts). The nitrocellulose blot was blocked with 5% non-fat dry milk in PBS (1-2 hours). The blot was then incubated with the first antibodies (mouse anti-FN, specific to human FN, SIGMA F0916 and mouse anti-beta actin, SIGMA A5316) and second antibody (Anti-mouse IgG AP conjugated, Promega S3721). The immuno-bands were developed with BCIP/NBT color development system (Promega S3771). Determination of Western band intensity: The band-images of Western blot were captured with a digital camera (3-5 pictures were taken per gel) and the intensity of bands was determined using “Image J” software.
FN concentrations were normalized with the cellular beta-Actin concentrations. Fibronectin secreted into medium and inside Y-treated cells were determined and compare to controls (DMSO-treated cells).

C/C=C(/C)C(=O)O[C@H]1[C@H](OC(=O)/C(C)=C\C)[C@@]2(CO)C(CC1(C)C)C1=CCC3[C@@]4(C)CC[C@H](O[C@@H]5OC(C(=O)O)[C@@H](O)C(O[C@@H]6O[C@@H](CO)C(O)C6O)C5O[C@@H]5OC(CO)[C@H](O)C(O)C5O)C(C)(C)C4CC[C@@]3(C)[C@]1(C)[C@@H](O)[C@H]2O (stereo partly drawn) [Xanifolia-Y, 3-O-[β-D-galactopyranosyl (1→2)]-α-L-arabinofuranosy (1→3)-β-D-glucuronopyranosyl-21,22-O-diangeloyl-3β, 15α, 16α, 21β, 22α, 28-hexahydroxyolean-12-ene]
IC50 (OVCA 432): 4.4 µM
GI50 (60 cancer cell lines): 0.1 to 1 µM
numbers of tumor nodules [1]: less
size of tumor [1]: smaller
Swelling rate after administration (%) ([2]; 10 mg/kg, 0.5 hour): 16.7%
Swelling rate after administration (%) ([2]; 10 mg/kg, 1 hour): 18.5%
Swelling rate after administration (%) ([2]; 10 mg/kg, 2 hours): 16.0%
Swelling rate after administration (%) ([2]; 10 mg/kg, 4 hours): 10.5%
Swelling rate after administration (%) ([2]; 20 mg/kg, 0.5 hour): 10.5%
Swelling rate after administration (%) ([2]; 20 mg/kg, 1 hour): 13.6%
Swelling rate after administration (%) ([2]; 20 mg/kg, 2 hours): 12.4%
Swelling rate after administration (%) ([2]; 20 mg/kg, 4 hours): 8.5%
Swelling rate after administration (%) ([2]; 40 mg/kg, 0.5 hour): 10.3%
Swelling rate after administration (%) ([2]; 40 mg/kg, 1 hour): 12.6%
Swelling rate after administration (%) ([2]; 40 mg/kg, 2 hours): 12.5%
Swelling rate after administration (%) ([2]; 40 mg/kg, 4 hours): 6.5%
cellular beta-actin content ([3]; 10 ug/ml): no change
decrease of Fibronectin cellular content ([3]; 10 ug/ml): 70%
activity at 10 µg/mL ([3]; Homo sapiens, ES-2, 10 ug/ml, read-out: Fibronectin cellular content, % of control): 30%
